Experimental data as given in paper PMC12454639, “Direct disassembly of α-syn preformed fibrils into α-syn monomers by an all-D-peptide” (NPJ Parkinson's Disease, 2025).
Square brackets hold non-standard residues; d marks the D form. Peptide text beside a SMILES is read from it.

Tested on: recombinant full-length α-syn
Assay: De novo ThT aggregation screening assay (50 µM α-syn)
Type: biochemical
Procedure: The Thioflavin T (ThT) assay is commonly used for the visualization of α-syn fibrilization, since the dye ThT is able to bind to the amyloidogenic cross-β-sheet proportions of fibril structures. Recombinant α-syn was thawed on ice and centrifuged for 30 min at 21,000 × g and 4 °C. The concentration of the supernatant was determined as described previously. Lyophilized D-peptides were thawed at RT for 1 h and dissolved in 500 µl PBS pH 7.4. After centrifugation for 30 min at 21,000 × g the supernatant concentration was determined by UV–vis using the corresponding extinction coefficient at A280. All ThT assay experiments were performed at 37 °C with 15 µM ThT and 0.05% sodium azide (w/v) in PBS pH 7.4 if not otherwise stated. ThT fluorescence was monitored with bottom optics at λex = 448 nm and λem = 482 nm in a fluorescence plate reader with orbital averaging on 3 mm (Clariostar or Polarstar Optima, BMG labtech, GE). […]
ThT assay was used for different purposes. […] Lag-time and t½ were calculated as described previously. […]
Monomeric α-syn (Supplementary Fig. 3) was incubated with or without a 3-fold molar excess of the D-peptides. […] The ThT positive aggregation was fitted with a symmetric Boltzmann fit and t ½- and lag-time were calculated accordingly. […] ThT fluorescence progression was measured in a 96-well non-binding half-area with a FLUOStar plate reader at λex = 448 nm and λem = 482 nm. […]

## CC[C@@H](C)[C@@H](NC(=O)[C@@H](Cc1c[nH]cn1)NC(=O)[C@@H](CCC(=O)O)NC(=O)[C@@H](CCC(N)=O)NC(=O)[C@@H](Cc1c[nH]c2ccccc12)NC(=O)[C@@H](Cc1ccc(O)cc1)NC(=O)[C@H](NC(=O)[C@@H](CCC(=O)O)NC(=O)[C@@H](Cc1c[nH]cn1)NC(=O)[C@H](NC(=O)[C@H]1CCCN1C(=O)[C@@H](CCSC)NC(=O)[C@H](N)CCCCN)[C@H](C)O)[C@H](C)O)C(=O)N[C@H](Cc1c[nH]c2ccccc12)C(=O)N[C@H](Cc1c[nH]cn1)C(=O)N[C@H](C)C(N)=O [SVD-1] (H-[dK][dM][dP][dT][dH][dE][dT][dY][dW][dQ][dE][dH][dI][dW][dH][dA]-NH2)
50 µM α-syn with 50, 150 or 250 µM D-peptide, PBS pH 7.4, n = 5
  effect on α-syn aggregation, concentration dependency: most efficient
50 µM α-syn, 3-fold molar excess peptide, PBS pH 7.4, 37 °C, shaking 300 rpm 30 s per cycle, n = 3
  effect on α-syn aggregation (t½ and lag-time): delayed α-syn aggregation
